Experimental data from patent EP0408330A2, “Anti-infective agents, process for their preparation and their use in therapy” (priority 1989, dated 1991).

Legend:
[1] = test system: Gram negative bacteria; assay: In vitro assessment of Gram negative activity (MIC/MBC panel); format: cell-based
Procedure: (§1) Minimum inhibitory concentrations (MIC), minimum bactericidal concentrations (MBC), rates of killing and the incidence of naturally occurring resistant mutants were determined for silver fusidate prepared according to Example 1. MICs were determined by the plate dilution method using IsoSensitest (IsoSensitest is a Trade Mark) media supplemented where necessary with 5% lysed horse blood. Two inocula were used, 10⁶ and 10⁴ cfu. MICs were read after overnight incubation in the appropriate atmosphere. The plates bearing the 10⁶ inocula were replicated using velvet pads for the determination of MBC which is defined as the lowest antibiotic concentration killing at least 99.9% of the original inoculum.
(§2) 20 strains of the following species were tested:
(§3) Gram negative: Escherichia coli, Enterobacter spp., Klebsiella pneumoniae, Acinetobacter spp., Pseudomonas aeruginosa, Providencia stuartii, Proteus mirabilis, indole-positive Proteae (10 each of Prov. rettgeri and Pr. vulgaris).

[2] = test system: various strains of Staphylococcus; assay: Incidence of naturally occurring resistant mutants; format: cell-based; conditions: absence of growth in the presence of 100 µg/ml
Procedure: as §1

[3] = test system: Gram positive and Gram negative bacteria and Candida albicans; assay: In vitro assessment of spectrum of activity (MIC/MBC panel); format: cell-based; conditions: compared to sodium fusidate and silver sulphadiazine
Procedure: as §1, §2
(§4) Gram positive: methicillin-resistant Staph. aureus (MRSA), methicillin-sensitive Staph. aureus (MSSA), methicillin-resistant Staph. epidermidis (MRSE), Enterocci, Streptococcus pyogenes, Candida albicans, Clostridium spp.
as §3

[4] = test system: Pseudomas sp.; assay: MIC / MBC, plate dilution method (MBC by replica plating with velvet pads); format: cell-based, Pseudomonas aeruginosa
Procedure: as §1, §2, §3

[5] = test system: one particular strain of Staphyloccus; assay: Rates of killing; format: cell-based; conditions: non-growing state compared with growing state
Procedure: as §1
This is a very interesting observation because it is known that certain strains of Staphylococcus colonize, e.g., the nose, creating in the host a carrier state. Carrier state hosts are a constant source of potential infection both for themselves and those they come in contact with. This is a particularly troublesome source of infections in the hospital environment. It is recognized that the cheapest and most efficient way off removing this problem from a hospital is to remove or discharge the carrier. […]

[6] = test system: MRSA; assay: MIC / MBC, plate dilution method (MBC by replica plating with velvet pads); format: cell-based, methicillin-resistant Staph. aureus (MRSA); conditions: inoculum of 10⁶ org/ml, 20 strains
Procedure: as §1, §2, §4

[7] = test system: remaining Gram positive organisms; assay: MIC determination, zinc fusidate panel; format: cell-based; conditions: remaining Gram positive organisms of the panel
Procedure: (§5) MICs were determined for zinc fusidate prepared according to Example 3 using the following Gram positive and Gram negative panels:
(§6) 4 strains of Staphylococcus aureus (2 methicillin-resistant, 2 methicilllin-sensitive) and 2 strains each of coagulase-negative staphylococci, Staph. saprophyticus, Enterococci, Streptococcus pyogenes, Strept. agalactiae, Listeria monocytogenes, diphtheroids and Bacillus spp., 2 strains each of Escherichia coli, Klebsiella pneumoniae, Pseudomonas aeruginosa, Providencia stuartii, Proteus morganii, Salmonella typhimurium, Acinetobacter spp., Citrobacter freundii, Serratia marcescens and Enterobacter cloacae.

[8] = test system: coagulase negative Staphylococci; assay: MIC determination, zinc fusidate panel; format: cell-based; conditions: 2 strains
Procedure: as §5, §6

[9] = test system: Gram positive bacteria; assay: MIC determination, zinc fusidate panel, overall assessment; format: cell-based
Procedure: as §5, §6

CC(=O)O[C@H]1C[C@@]2(C)[C@@H](C[C@@H](O)[C@H]3[C@@]4(C)CC[C@@H](O)[C@@H](C)[C@@H]4CC[C@@]32C)/C1=C(\CCC=C(C)C)C(=O)O [sodium fusidate]
Gram negative activity [1]: total lack of Gram negative activity

silver fusidate
incidence of silver fusidate resistant mutants [2]: too low to be measured | spectrum of activity [3]: broad spectrum of activity | MBC range [4]: 32 to 64 µg/mL | MIC range [4]: 32 to 64 µg/mL | rate of killing [5]: killed more rapidly in a non-growing state | MIC range [6]: 0.13 to 64 µg/mL

silver salt of N¹-(pyrimidin-2-yl) sulphanilamide [silver sulphadiazine, reference compound]
MBC range ([6]; lowest concentration killing at least 99.9% of the original inoculum): 128 to 256 µg/mL

zinc fusidate
MIC range [7]: <1 to 10 µg/mL | MIC range [8]: 10 to 100 µg/mL | activity against Gram positive bacteria [9]: demonstrates activity
